One data set deals with bone marrow cells. Put plainly: In vivo chemoprotection: bone marrow cell count. The note with it: for effect on bone marrow cell count compared to cyclophosphamide treated mice: CY-treated mice, protocol of example 16 (pre-treatment); for Bone Marrow # Cells (×10^6): Table 8, CY-immunosuppressed mice, CY + test compound 6.25 μM (CY line = CY alone). How it is done: (§1) To examine the immunoprotective effect of MCT or other compounds, mice were pre-treated orally at day-3, -2 and -1 or treated intravenously at day 0 with the test compound. Mice were sacrificed at day +5 by cardiac puncture and cervical dislocation. Then, cell suspensions were prepared from thymus, spleen and bone marrow as follow.
(§2) Tissues were crushed in PBS buffer and contaminating erythrocytes were lysed in ACK buffer (155 mM NH4Cl, 12 mM NaHCO3, 0.1 mM EDTA, pH 7.3) for 5 minutes. Cells were then collected by centrifugation and washed three times in PBS and resuspended in tissue culture medium. Cells were counted on a hemacytometer.
(§3) Chemoprotection studies were performed as described in example 16 except that mice were (post)-treated with MCT, sodium caprylate, sodium caprate or capric acid per o.s. on day 1, 2, 3 and 4.

For another data set, the system named is spleen cells. Put plainly: In vivo chemoprotection: spleen cell count. As to conditions: for effect on spleen cell count compared to cyclophosphamide treated mice: CY-treated mice, protocol of example 16 (pre-treatment); for Spleen # Cells (×10^6): Table 8, CY-immunosuppressed mice, CY + test compound 6.25 μM (CY line = CY alone). As for the experimental part:
as §1, §2, §3

The next data set concerns blood cell subsets. Put plainly: Blood immunophenotyping (flow cytometry of cell surface markers). Format: in vivo, C57BL/6 mice. As to conditions: CY (200 mg/kg) immunosuppressed mice. How it is done: (§4) Female, 6- to 8-week old, C57BL/6 mice were pre-treated on day -3, -2 and -1 per o.s. or intravenously at day 0 with different concentrations of MCT. Immunophenotyping was also performed on immunosuppressed animals. […] Mice were sacrificed on day 5 by cardiac puncture. Blood and spleens were collected and cell suspensions prepared and erythrocytes lysed in ACK buffer (155 mM NH4Cl, 12 mM NaHCO3, 0.1 mM EDTA, pH 7.3) for 5 minutes. The cells were washed three times in PBS, pH 7.4 and resuspended in tissue culture medium. The cells were then incubated for 45 minutes on ice with fluorescein isothiocyanate (FITC) or phycoerythrin (PE) conjugated cell surface marker according to the manufacturer's (Gibco/BRL, Cedarlane, Boehringer Mannheim) recommendation. The cells were then washed in PBS, fixed with 1% paraformaldehyde and analyzed with a Coulter XL flow cytometer. Analysis of the cell subsets was undertaken by determination of standard cell surface markers which were as follows: TCR (T-cell receptor), CD4 (T helper), CD8 (T cytotoxic/suppressor), CD11b (macrophage), NK (NK cells) and Ly5 (B-cells). Bone marrow cells were obtained as described in example 15. Cells were stained by a 45 minutes incubation of FITC or PE conjugated cell surface marker according to the manufacturer's recommendation. The cells were then washed in PBS, fixed with 1% paraformaldehyde and analyzed with a Coulter XL flow cytometer. Analysis of the cell subsets was undertaken by determination of standard cell surface markers which were as follows: CD34 (hematopoietic progenitor cells), CD41 (platelets, megakaryocytes), CD13 (myelomonocytic stem cells, myelocytes, promonocytes) and CD38 (lymphoid stem cells, pro-B, pre-B).
A general note: A flow cytometer gives signals particle by particle.

Another data set concerns spleen cell subsets. Put plainly: Spleen immunophenotyping (flow cytometry of cell surface markers). Format: in vivo, C57BL/6 mice. The note with it: CY (200 mg/kg) immunosuppressed mice. As for the experimental part: as §4
Another data set deals with DA-3 breast carcinoma. Put plainly: Antitumor activity in DA-3 breast carcinoma model. It counts as in vivo, BALB/c mice. Set-up: Tumor volume: unit not given here. How it is done:
The syngeneic tumor DMBA3 (DA-3, breast carcinoma model) arose from a preneoplastic lesion treated with 7,12-dimethylbenzanthracene in female BALB/c mice. DA-3 cells were grown as monolayer cultures in plastic flasks in RPMI-1640 containing 0.1 mM nonessential amino acids, […], 2 mM L-glutamine and 100 μg/ml gentamycin sulfate. This was further supplemented with 50 μM 2-mercaptoethanol and 10% fetal bovine serum. The DA-3 tumors were serially passage in vivo by s.c. inoculation of 5×10^5 viable tumor cells to produce localized tumors in 6- to 8-week old BALB/c mice. The animals were then serially monitored by manual palpation for evidence of tumor. Serial tumor volume was obtained by bi-dimensional diameter measurements with calipers, using the formula […] (a×b^2) where “a” was the major tumor diameter and “b” the minor perpendicular diameter.
BABL/c mice were injected with tumor cells on day 0. […] Body weights and tumor volumes were monitored from day 4 until day 23. At day 23, all animals were sacrificed. The % T/C (treatment over control) was calculated as the ratio of tumor volumes at termination date in the treatment group divided by the respective volumes in the control group multiplied by 100. By the NCl criteria the product is considered effective if % T/C is ≦40%.

Where [1] appears, read: Table 19, sub-therapeutic CY 100 mg/kg, TX 20 mg/kg i.v. day 9 and 16, MCT per os, day 23.

3 molecules from US8487001B2, “Medium-chain length fatty acids, glycerides and analogues as neutrophil survival and activation factors” (ProMetic BioSciences Inc., priority 2001, dated 2013) can be followed below.

“Also recorded” adds a separate entry of the source.

On to `CCCCCCCCCCCC(=O)OCC(COC(=O)CCCCCCCCCCC)OC(=O)CCCCCCCCCCC` [trilaurin], for which, in the data set with bone marrow cells, the “effect on bone marrow cell count compared to cyclophosphamide treated mice” value is on record as “weak (not significant) activity” and the “Bone Marrow # Cells (×10^6)” value is 31 ± 6.8 ×10^6. In the data set with spleen cells, the “effect on spleen cell count compared to cyclophosphamide treated mice” value is “weak (not significant) activity” and the “Spleen # Cells (×10^6)” value is 28 ± 19.5 ×10^6. Further, in the data set on blood cell subsets, the “Blood Immunophenotyping: effect compared to cyclophosphamide alone (words)” value is reported as “no significant effect compared to cyclophosphamide alone”. The “Blood Immunophenotyping: effect compared to cyclophosphamide alone (words)” value in the data set with blood cell subsets (listed as Trilaurin) is “No significant effect”. Besides, the “Spleen Immunophenotyping: effect compared to cyclophosphamide alone (words)” value in the data set with spleen cell subsets was “enhance the relative percentage of CD11+; also recorded: induces a significant increase in the LY5-TCR- and NK+ cell subsets”. Moreover, in the data set with spleen cell subsets (Table 14, compound 6.25 μM), the “Spleen Immunophenotyping: CD11+ cell subset (relative percentage)” value is 43.94 ± 4.78, the “Spleen Immunophenotyping: LY5−TCR− cell subset (relative percentage)” value turned out to be 77.86 ± 2.94 and the “Spleen Immunophenotyping: NK+ cell subset (relative percentage)” value was 17.46 ± 5.80.
`CCCCCCCCCCCCCC(=O)OCC(COC(=O)CCCCCCCCCCCCC)OC(=O)CCCCCCCCCCCCC` [trimyristin]: in the data set on bone marrow cells, the “effect on bone marrow cell count compared to cyclophosphamide treated mice” value is given as “weak (not significant) activity” and the “Bone Marrow # Cells (×10^6)” value is given as 31 ± 9.9 ×10^6. For the same molecule, in the data set with spleen cells, the “effect on spleen cell count compared to cyclophosphamide treated mice” value was “weak (not significant) activity” and the “Spleen # Cells (×10^6)” value was 15 ± 4.6 ×10^6. Also, in the data set with blood cell subsets, the “Blood Immunophenotyping: effect compared to cyclophosphamide alone (words)” value is recorded as “no significant effect compared to cyclophosphamide alone”. The “Blood Immunophenotyping: effect compared to cyclophosphamide alone (words)” value in the data set on blood cell subsets (listed as Trimyristin) was “No significant effect”. The “Spleen Immunophenotyping: effect compared to cyclophosphamide alone (words)” value with spleen cell subsets is on record as “enhance the relative percentage of CD11+”. In the data set with spleen cell subsets (Table 14, compound 6.25 μM), the “Spleen Immunophenotyping: CD11+ cell subset (relative percentage)” value is reported as 42.94 ± 8.45.
Consider `CC(=O)O[C@@]12CO[C@@H]1C[C@H](O)[C@@]1(C)C(=O)[C@H](O)C3=C(C)[C@@H](OC(=O)[C@H](O)[C@@H](NC(=O)OC(C)(C)C)c4ccccc4)C[C@@](O)([C@@H](OC(=O)c4ccccc4)[C@H]21)C3(C)C` [TX, taxotere], for which, in the data set with bone marrow cells (mouse, in vivo, iv), the “effect of cytotoxic drug on bone marrow cell count compared to the control” value is reported as “has no significant effect on bone marrow cell count”. In addition, the “effect of cytotoxic drug on spleen cell count compared to the control” value with spleen cells (mouse, in vivo, iv) is on record as “reduce significantly the spleen cell count compared to the control”. Further, the “effect on tumor volume compared to the control” value in the data set on DA-3 breast carcinoma (FIG. 12, Table 20, therapeutic CY 200 mg/kg, TX 30 mg/kg) is “not significant compared to the control mice”. Also, in the data set with DA-3 breast carcinoma (setting [1]), the “Treated/Control (%)” value worked out at 64.5% and the Tumor volume worked out at 37.9 ± 41.5. In addition, the “T/C (%)” value in the data set with DA-3 breast carcinoma (Table 20, therapeutic CY 200 mg/kg, TX 30 mg/kg) came to 64.7%.
